Measured values from US20250051278A1, “[…]” (Reunion Neuroscience, Inc., priority 2021, published 2025).

Columns and labels:
[1] = Subjective effects in human volunteers (standardized questionnaires); format: in vivo
Procedure: The compound from example 6 (N,N diisopropyltryptamine-4-glutarate) is administered to human volunteers by subcutaneous injection of a sterile solution (1 mg/ml) at a dosage of 0.1-0.6 mg/kg. Blood samples are taken at 5, 15, 30, 45, 60, 120, 240 and 480 min and 24 h. Samples are analyzed by LCMS for drug and prodrug. Subjective effects are measured using standardized questionnaires.
The compound from example 2 (4-hemisuccinate of 4-OH-DiPT) is administered to human volunteers by oral ingestion of a tablet containing 50 mg of the prodrug. Blood samples are taken at 5, 15, 30, 45, 60, 120, 240 and 480 min and 24 h. Samples are analyzed by LCMS for drug and prodrug. Subjective effects are measured using standardized questionnaires.

[2] = Head Twitch Response (HTR) or Wet Dog Shakes (WDS) by visual observation; format: in vivo; settings: rats; highest intensity of head twitch at the Tmax of the PK profile
Procedure: In some cases, Head Twitch Response (HTR) or Wet Dog Shakes (WDS) were recorded by visual observation and counting of the relevant muscle twitches.

[3] = Prodrug hydrolysis in dog plasma at 37° C; format: in vitro ADME; settings: 1.0 ug/mL
Procedure: (§1) Pooled mixed gender human plasma (2 ml), mouse plasma, rat plasma and dog plasma were equilibrated at 37° C. The compound of example 9 was added so as to achieve a concentration of 1.0 ug/mL. Aliquots (50 uL) of the mixture were withdrawn at timed intervals (0, 0.004, 0.5, 1, 2 and 4 hours) and quenched with 200 μL of methanol/acetonitrile (1:1). The samples were vortexed and stored at −80° C. until analysis. Assays were done in triplicate. Control samples were done in phosphate buffered saline (PBS, pH 7.4) and simulated gastric fluid (SGF, pH 2). Analysis of samples as performed by HPLC-MS to determine the amounts of prodrug and drug in each sample tested. Table 1 provides the mean concentrations of prodrug remaining at different time points of the experiment.

[4] = Prodrug hydrolysis in rat plasma at 37° C; format: in vitro ADME; settings: 1.0 ug/mL
Procedure: as §1

[5] = Control hydrolysis in simulated gastric fluid (SGF, pH 2); format: physicochemical; settings: SGF (pH2)
Procedure: as §1

[6] = Prodrug hydrolysis in mouse plasma at 37° C; format: in vitro ADME; settings: 1.0 ug/mL
Procedure: as §1

[7] = Use in treatment of a human patient suffering depression; format: in vivo; settings: i.m. or s.c. injection ca. 25 mg or oral ca. 50-200 mg
Procedure: The compound of example 6 (N,N diisopropyltryptamine-4-glutarate) is administered by i.m. or s.c. injection (ca. 25 mg; 0.4-0.5 mg/kg) to a human patient suffering depression, or by oral administration (ca. 50-200 mg; 0.8-3.2 mg/kg) with tablets. In another example of use, the compound of example 6 (4-hemiglutarate of 4-OH-DiPT) is similarly administered. Prior to the dosing session, the patient is qualified for the experience by measurement of depression scores, screened for exclusions (e.g. history of psychoses, unfavorable heart condition, pregnancy) and finally, the patient is encouraged to formulate an intent for the dosing session. Dosing is performed in a quiet clinic setting with the patient resting comfortably in an inclined, but unrestrained, position to avoid falls. The patients' eyes are covered, and music is applied. The drug is administered. After 4 h, the patient reports no longer feeling the effects of the drug and is asked to sit up while under supervision. Feeling normal, the patient is allowed to stand (supervised) and feeling in control, is allowed to move around. One hour later, the patient is discharged. Later by 24 h, the patient returns to the clinic to meet with a psychotherapist to recount the session. The patient records a depression score via questionnaire and is again discharged. […]

[8] = Control hydrolysis in phosphate buffered saline (PBS, pH 7.4); format: physicochemical; settings: PBS (pH7)
Procedure: as §1

[9] = Solubility in water; format: physicochemical; settings: thermodynamic from solid; HCl salt solid dissolved in water
Procedure: The structure was confirmed by NMR. Purity was determined by HPLC (>97%). The solid was resuspended in 1M HCl-dioxane to form the HCl salt which was filtered, washed with ether and dried. Yield (>95%, purity >95%; DSC endotherm 174C). The solid could be dissolved in water up to 50 mg/ml and lyophilized to form a white “cake”.

[10] = Prodrug hydrolysis in pooled mixed gender human plasma at 37° C; format: in vitro ADME; settings: 1.0 ug/mL
Procedure: as §1

[11] = Pharmacokinetics in rats (intravenous and subcutaneous injection); format: in vivo; settings: i.v. and s.c., 1.4-2 mg/kg, LCMS, rapidly converted to the active form
Procedure: The compound from example 9 was administered to rats by injection (intravenous and subcutaneous) with a sterile solution (2 mg/ml) at a rate of 1.4-2 mg/kg. Blood samples were taken at 15, 30, 45, 60, 120, 240 min and 360 min and analyzed by LCMS for drug and prodrug. PK profile for the prodrug and active species were obtained and relative bioavailability was determined for each of the routes of administration.
Pharmacokinetics of 1.34 mg/ml 4-HO-DiPT HCl administered by intravenous or subcutaneous injection were performed in parallel under identical conditions as above. […] Immediately obvious is the increased variability with the active species when administered s.c. and intravenous administrations.

CC(C)N(CCc1c[nH]c2cccc(OC(=O)CCC(=O)O)c12)C(C)C [Example 2, N,N diisopropyltryptamine-4-succinate]
Subjective effects: intensity of psychoactivity ([1]; oral tablet 50 mg): correlates with blood levels

CC(C)N(CCc1c[nH]c2cccc(O)c12)C(C)C [Example 4-HO-DIPT, 4-hydroxy-N,N-diisopropyltryptamine]
Intensity of the HTR versus plasma concentration of 4-HO-DIPT [2]: proportional to the plasma concentration

CC(C)N(CCc1c[nH]c2cccc(OC(=O)CCCC(=O)O)c12)C(C)C [Example 6, N,N diisopropyltryptamine-4-glutarate]
Percentage of remaining prodrug ([3]; 0 h): 100% | Percentage of remaining prodrug ([3]; 0.004 h): 100% | Percentage of remaining prodrug ([3]; 0.5 h): 87% | Percentage of remaining prodrug ([3]; 1 h): 79% | Percentage of remaining prodrug ([3]; 2 h): 64% | Percentage of remaining prodrug ([3]; 4 h): 39% | Percentage of remaining prodrug ([4]; 0 h): 100% | Percentage of remaining prodrug ([4]; 0.004 h): 0% | Percentage of remaining prodrug ([4]; 0.5 h): 0% | Percentage of remaining prodrug ([4]; 1 h): 0% | Percentage of remaining prodrug ([4]; 2 h): 0% | Percentage of remaining prodrug ([4]; 4 h): 0% | Percentage of remaining prodrug ([5]; 0 h): 100% | Percentage of remaining prodrug ([5]; 0.004 h): 100% | Percentage of remaining prodrug ([5]; 0.5 h): 100% | Percentage of remaining prodrug ([5]; 1 h): 100% | Percentage of remaining prodrug ([5]; 4 h): 101% | Subjective effects: intensity of psychoactivity ([1]; subcutaneous injection, 0.1-0.6 mg/kg): correlates with blood levels | Percentage of remaining prodrug ([6]; 0 h): 100% | Percentage of remaining prodrug ([6]; 0.004 h): 0% | Percentage of remaining prodrug ([6]; 0.5 h): 0% | Percentage of remaining prodrug ([6]; 1 h): 0% | Percentage of remaining prodrug ([6]; 2 h): 0% | Percentage of remaining prodrug ([6]; 4 h): 0% | Time after which the patient reports no longer feeling the effects of the drug [7]: 4 h | Percentage of remaining prodrug ([8]; 0 h): 100% | Percentage of remaining prodrug ([8]; 4 h): 93% | solubility [9]: ≤ 50 mg/mL | Percentage of remaining prodrug ([10]; 0 h): 100% | Percentage of remaining prodrug ([10]; 0.004 h): 100% | Percentage of remaining prodrug ([10]; 0.5 h): 3.0% | Percentage of remaining prodrug ([10]; 1 h): 0.23% | Percentage of remaining prodrug ([10]; 2 h): 0% | Percentage of remaining prodrug ([10]; 4 h): 0%

CC(C)N(CCc1c[nH]c2cccc(OC(=O)CCCC(=O)O)c12)C(C)C.Cl [Example 9, HCl salt of N,N diisopropyltryptamine-4-glutarate]
Prodrug in blood samples after injection [11]: not observed
